Measured values reported in patent publication US20250230147A1, “LACTAMS AS CBL-B INHIBITORS” (Genentech, Inc., priority 2021, published 2025).

Columns and labels:
c-Cbl = c-Cbl (Homo sapiens (Human), UniProt P22681); experiment: C-Cbl LCK Ub TR-FRET assay (c-cbl Lck HTRF); assay type: biochemical; settings: for (fold-selectivity): C-cbl Lck HTRF IC50 relative to Cbl-b Lck HTRF IC50
Outline: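 After the ubiquitination reaction, detection mixture was added and plates incubated 20 min at room temperature before reading. IC50 values were calculated with wells lacking LCK as the low control and DMSO as the high control.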

Cbl-b = Cbl-b (Homo sapiens (Human), UniProt Q13191); experiment: Cbl-b LCK Ub TR-FRET assay (Cbl-b Lck HTRF); assay type: biochemical
Sequence of Cbl-b (Q13191 40-426): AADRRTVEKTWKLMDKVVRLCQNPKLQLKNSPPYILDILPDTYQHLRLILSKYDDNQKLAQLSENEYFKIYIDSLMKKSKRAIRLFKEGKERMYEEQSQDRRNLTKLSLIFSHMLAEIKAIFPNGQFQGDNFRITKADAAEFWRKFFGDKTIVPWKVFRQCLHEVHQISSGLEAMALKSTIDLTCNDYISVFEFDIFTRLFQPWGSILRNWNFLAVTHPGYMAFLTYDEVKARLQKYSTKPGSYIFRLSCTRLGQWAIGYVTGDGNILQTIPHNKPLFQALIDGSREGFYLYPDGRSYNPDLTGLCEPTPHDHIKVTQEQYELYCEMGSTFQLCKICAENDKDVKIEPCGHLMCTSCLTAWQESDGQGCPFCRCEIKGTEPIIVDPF
Outline: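 TR-FRET (340 nm excitation, 615/665 nm emission) read after adding HA-ubiquitin–UBE2D2 thioester, anti-HA-D2 and streptavidin-Eu. Beforehand, compounds incubated 60 min with biotinylated Cbl-b, then 90 min with His-LCK and ATP (1 mM in 2× mix); IC50 from 10 concentrations, DMSO high and no-LCK low controls.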

Sequence of c-Cbl (P22681 47-435): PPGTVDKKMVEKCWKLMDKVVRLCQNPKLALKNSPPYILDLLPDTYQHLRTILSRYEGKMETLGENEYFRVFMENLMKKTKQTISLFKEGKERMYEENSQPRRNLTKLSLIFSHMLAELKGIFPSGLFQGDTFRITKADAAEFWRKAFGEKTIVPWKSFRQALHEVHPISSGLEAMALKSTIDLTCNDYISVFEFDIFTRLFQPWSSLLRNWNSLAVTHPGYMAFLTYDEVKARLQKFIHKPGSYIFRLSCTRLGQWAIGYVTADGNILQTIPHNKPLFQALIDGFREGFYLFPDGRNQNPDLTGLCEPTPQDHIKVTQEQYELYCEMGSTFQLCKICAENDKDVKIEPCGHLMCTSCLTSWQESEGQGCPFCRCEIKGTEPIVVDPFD

Row | SMILES | IC50 (c-Cbl) | (fold-selectivity) (c-Cbl) | IC50 (Cbl-b)
1 | Cn1cnnc1[C@H](F)C1(c2cccc(N3Cc4c(cc(CC5CNC5)cc4C(F)(F)F)C3=O)c2)COC1 [Compound 57, (R)-6-(azetidin-3-ylmethyl)-2-(3-(3-(fluoro(4-methyl-4H-1,2,4-triazol-3-yl)methyl)oxetan-3-yl)phenyl)-4-(trifluoromethyl)isoindolin-1-one] | 67 nM | 1.4x | 49 nM
2 | Cn1cnnc1[C@H](F)C1(c2cccc(N3Cc4c(I)cccc4C3=O)c2)COC1 [Compound 205, (R)-2-(3-(3-(fluoro(4-methyl-4H-1,2,4-triazol-3-yl)methyl)oxetan-3-yl)phenyl)-4-iodoisoindolin-1-one] | 770 nM | 2.7x | 290 nM
3 | Cn1cnnc1[C@@H](F)C1(c2cccc(N3Cc4c(cc(CN5CC6(CCC6)C5)cc4C(F)(F)F)C3=O)c2)COC1 [Compound 166, (S)-6-(2-azaspiro[3.3]heptan-2-ylmethyl)-2-(3-(3-(fluoro(4-methyl-4H-1,2,4-triazol-3-yl)methyl)oxetan-3-yl)phenyl)-4-(trifluoromethyl)isoindolin-1-one] | 310 nM | 1.8x | 170 nM
4 | CC(C)N(C)Cc1cc2c(c(C(F)(F)F)c1)CN(c1cccc(C3([C@@H](F)c4nncn4C)CC(F)(F)C3)c1)C2=O [Compound 419, (R)-2-(3-(3,3-difluoro-1-(fluoro(4-methyl-4H-1,2,4-triazol-3-yl)methyl)cyclobutyl)phenyl)-6-((isopropyl(methyl)amino)methyl)-4-(trifluoromethyl)isoindolin-1-one] | 420 nM | (1.2x) | 360 nM
5 | CC(C)[C@H]1CN(S(C)(=O)=O)CCN1Cc1cc2c(c(C(F)(F)F)c1)CN(c1cccc(C3([C@@H](F)c4nncn4C)COC3)c1)C2=O [Compound 195, 2-(3-(3-((R)-fluoro(4-methyl-4H-1,2,4-triazol-3-yl)methyl)oxetan-3-yl)phenyl)-6-(((S)-2-isopropyl-4-(methylsulfonyl)piperazin-1-yl)methyl)-4-(trifluoromethyl)isoindolin-1-one] | 110 nM | 2.0x | 53 nM
6 | C[C@@H]1CN(Cc2cc3c(c(C(F)(F)F)c2)CN(c2cccc(C4([C@@H](F)c5nncn5C)COC4)c2)C3=O)CCCO1 [Compound 119, 2-(3-(3((R)-fluoro(4-methyl-4H-1,2,4-triazol-3-yl)methyl)oxetan-3-yl)phenyl)-6-(((R)-2-methyl-1,4-oxazepan-4-yl)methyl)-4-(trifluoromethyl)isoindolin-1-one] | 52 nM | 1.1x | 48 nM
7 | Cn1cnnc1CC1(c2cc(NCCN3CCCC3=O)nc(N3Cc4c(cc(CNC5(C)CCC5)cc4C(F)(F)F)C3=O)c2)CCC1 [Compound 338, 2-(4-(1-((4-methyl-4H-1,2,4-triazol-3-yl)methyl)cyclobutyl)-6-((2-(2-oxopyrrolidin-1-yl)ethyl)amino)pyridin-2-yl)-6-(((1-methylcyclobutyl)amino)methyl)-4-(trifluoromethyl)isoindolin-1-one] | 140 nM | (1.1x) | 130 nM
8 | CC(=O)N1CCC(CNc2cc(C3(Cc4nncn4C)CCC3)cc(N3Cc4c(cc(CNC5(C)CCC5)cc4C(F)(F)F)C3=O)n2)CC1.Cl [Compound 329, 2-(6-(((1-acetylpiperidin-4-yl)methyl)amino)-4-(1-((4-methyl-4H-1,2,4-triazol-3-yl)methyl)cyclobutyl)pyridin-2-yl)-6-(((1-methylcyclobutyl)amino)methyl)-4-(trifluoromethyl)isoindolin-1-one hydrochloride] | 65 nM | (0.66x) | 98 nM
9 | CC[C@@H](C)NCc1cc2c(c(C(F)(F)F)c1)CN(c1cccc(C3(Cc4nncn4C)CC(F)(F)C3)c1)C2=O [Compound 370, (R)-6-((sec-butylamino)methyl)-2-(3-(3,3-difluoro-1-((4-methyl-4H-1,2,4-triazol-3-yl)methyl)cyclobutyl)phenyl)-4-(trifluoromethyl)isoindolin-1-one] | 63 nM | (1.0x) | 62 nM
10 | CC(C)[C@H]1CN(C)CCN1Cc1cc2c(c(C(F)(F)F)c1)CN(c1cc(C3([C@@H](F)c4nncn4C)CCC3)cc(NCCO)n1)C2=O [Compound 233, 2-(4-(1-((R)-fluoro(4-methyl-4H-1,2,4-triazol-3-yl)methyl)cyclobutyl)-6-((2-hydroxyethyl)amino)pyridin-2-yl)-6-(((S)-2-isopropyl-4-methyl-piperazin-1-yl)methyl)-4-(trifluoromethyl)isoindolin-1-one] | 7.1 nM | (0.94x) | 8.3 nM
11 | Cn1cnnc1CC1(c2cc(NC3CCC(F)(F)C3)nc(N3Cc4c(cccc4C(F)(F)F)C3=O)c2)COC1 (stereo not drawn) [Compound 483, 2-(6-((3,3-difluorocyclopentyl)amino)-4-(3-((4-methyl-4H-1,2,4-triazol-3-yl)methyl)oxetan-3-yl)pyridin-2-yl)-4-(trifluoromethyl)isoindolin-1-one] | 20000 nM | (12x) | 1800 nM
12 | CC(C)[C@H]1CN(C)CCN1Cc1cc2c(c(C(F)(F)F)c1)CN(c1cccc(C3([C@H](F)c4nncn4C4CC4)COC3)c1)C2=O [Compound 487, 2-(3-(3-((S)-(4-cyclopropyl-4H-1,2,4-triazol-3-yl)fluoromethyl)oxetan-3-yl)phenyl)-6-(((S)-2-isopropyl-4-methylpiperazin-1-yl)methyl)-4-(trifluoromethyl)isoindolin-1-one] | 2700 nM | (1.5x) | 1800 nM
13 | Cn1cnnc1[C@@H](F)C1(c2cccc(N3Cc4c(cc(Oc5cn[nH]c5)cc4C(F)(F)F)C3=O)c2)COC1 [Compound 117, (S)-6-((1H-pyrazol-4-yl)oxy)-2-(3-(3-(fluoro(4-methyl-4H-1,2,4-triazol-3-yl)methyl)oxetan-3-yl)phenyl)-4-(trifluoromethyl)isoindolin-1-one] | 750 nM | 1.4x | 540 nM
14 | CN1C[C@@H]2C[C@H]1CN2Cc1cc2c(c(C(F)(F)F)c1)CN(c1cccc(C3(Cc4nncn4C)CC(F)(F)C3)c1)C2=O [Compound 414, 2-(3-(3,3-difluoro-1-((4-methyl-4H-1,2,4-triazol-3-yl)methyl)cyclobutyl)phenyl)-6-(((1S,4S)-5-methyl-2,5-diazabicyclo[2.2.1]heptan-2-yl)methyl)-4-(trifluoromethyl)isoindolin-1-one] | 68 nM | (0.77x) | 88 nM
15 | CCNc1cc(C2(Cc3nncn3C)COC2)cc(N2Cc3c(cc(CN4CCN(C)C[C@@H]4C(C)C)cc3C(F)(F)F)C2=O)n1 [Compound 291, (S)-2-(6-(ethylamino)-4-(3-((4-methyl-4H-1,2,4-triazol-3-yl)methyl)oxetan-3-yl)pyridin-2-yl)-6-((2-isopropyl-4-methylpiperazin-1-yl)methyl)-4-(trifluoromethyl)isoindolin-1-one] | 8.2 nM | (0.69x) | 12 nM
